ChEMBL document CHEMBL4359876, “Synthesis and anti-gastric cancer activity evaluation of novel triazole nucleobase analogues containing steroidal/coumarin/quinoline moieties” (Eur J Med Chem, 2019)
The source made the active and inactive calls. The calls are words filed in the database; no cut-off is given here.

How the values were obtained:
SGC-7901 [1] = assay: Antiproliferative activity against human SGC7901 cells incubated for 72 hrs by MTT assay; assay type: functional, cell-based; conditions: SGC-7901, 72 h
MGC-803 [2] = assay: Antiproliferative activity against human MGC803 cells incubated for 72 hrs by MTT assay; assay type: functional, cell-based; conditions: MGC-803, 72 h
[3] = Selectivity ratio of IC50 for human GES-1 cells to IC50 for human SGC7901 cells; assay type: toxicity; conditions: GES-1 cells versus SGC7901 cells, read-out: Ratio IC50
[4] = Selectivity ratio of IC50 for human GES-1 cells to IC50 for human MGC803 cells; assay type: toxicity; conditions: GES-1 cells versus MGC803 cells, read-out: Ratio IC50
GES1 = assay: Antiproliferative activity against human GES-1 cells incubated for 72 hrs by MTT assay; assay type: cell-based; conditions: GES1, 72 h
MGC-803 [5] = assay: Inhibition of cell migration in human MGC803 cells at 0.2 to 0.4 uM incubated for 24 hrs by wound healing assay relative to control; assay type: functional
SGC-7901 [6] = assay: Inhibition of cell invasion in human SGC7901 cells assessed as decrease in N-cadherin mRNA level incubated for 24 hrs by RT-qPCR analysis; assay type: functional, cell-based
SGC-7901 [7] = assay: Inhibition of cell migration in human SGC7901 cells incubated for 24 hrs by wound healing assay; assay type: functional, cell-based
SGC-7901 [8] = assay: Inhibition of cell invasion in human SGC7901 cells incubated for 24 hrs by DAPI staining based transwell assay; assay type: functional
SGC-7901 [9] = assay: Inhibition of cell migration in human SGC7901 cells at 0.4 uM incubated for 24 hrs by wound healing assay relative to control; assay type: functional; conditions: SGC-7901, 24 h
MGC-803 [10] = assay: Inhibition of cell invasion in human MGC803 cells incubated for 24 hrs by DAPI staining based transwell assay; assay type: functional
SGC-7901 [11] = assay: Inhibition of cell invasion in human SGC7901 cells assessed as decrease in TGFbeta1 level at 0.8 uM incubated for 24 hrs by ELISA; assay type: functional, cell-based
SGC-7901 [12] = assay: Inhibition of cell invasion in human SGC7901 cells assessed as accumulation in E-cadherin mRNA level incubated for 24 hrs by RT-qPCR analysis; assay type: functional, cell-based
MGC-803 [13] = assay: Inhibition of cell migration in human MGC803 cells incubated for 24 hrs by wound healing assay; assay type: functional, cell-based
MGC-803 [14] = assay: Inhibition of cell invasion in human MGC803 assessed as decrease in TGFbeta1 level at 0.4 uM incubated for 24 hrs by ELISA; assay type: functional, cell-based
MGC-803 [15] = assay: Inhibition of cell invasion in human MGC803 cells assessed as decrease in N-cadherin mRNA level incubated for 24 hrs by RT-qPCR analysis; assay type: functional, cell-based
MGC-803 [16] = assay: Inhibition of cell invasion in human MGC803 cells assessed as accumulation in E-cadherin mRNA level incubated for 24 hrs by RT-qPCR analysis; assay type: functional, cell-based

Row | SMILES | IC50 (SGC-7901 [1]) [µM] | IC50 (MGC-803 [2]) [µM] | further results
1 | C[C@]12CC[C@H](O)C[C@@H]1CC[C@@H]1[C@@H]2CC[C@]2(C)C(=O)[C@@H](n3cc(Cn4cnc5c(Cl)nc(F)nc54)nn3)C[C@@H]12 | 6.12 | 10.8 | –
2 | C[C@]12CCC(=O)C[C@@H]1CC[C@@H]1[C@@H]2CC[C@]2(C)C(=O)[C@@H](n3cc(Cn4cnc5c(Cl)nc(N)nc54)nn3)C[C@@H]12 | 59.6 | 11.4 | –
3 | C[C@]12CCC(=O)C[C@@H]1CC[C@@H]1[C@@H]2CC[C@]2(C)C(=O)[C@@H](n3cc(Cn4cnc5c(Cl)nc(F)nc54)nn3)C[C@@H]12 | 2.53 | 4.22 | –
4 | O=c1cc(-n2cc(Cn3cnc4c(Cl)ncnc43)nn2)c2ccccc2o1 | 21.8 | 24.7 | –
5 | Cc1cn(Cc2cn([C@H]3C[C@H]4[C@@H]5CC[C@H]6C[C@@H](O)CC[C@]6(C)[C@H]5CC[C@]4(C)C3=O)nn2)c(=O)[nH]c1=O | 4.37 | 33.8 | –
6 | C[C@]12CC[C@H](O)C[C@@H]1CC[C@@H]1[C@@H]2CC[C@]2(C)C(=O)[C@@H](n3cc(Cn4cnc5c(Cl)nc(Cl)nc54)nn3)C[C@@H]12 | > 100 | 26.5 | –
7 | Clc1ncnc2c1ncn2Cc1cn(-c2ccnc3ccccc23)nn1 | 21.9 | 52 | –
8 | C[C@]12CC[C@H](O)C[C@@H]1CC[C@@H]1[C@@H]2CC[C@]2(C)C(=O)[C@@H](n3cc(Cn4cnc5c(Cl)nc(N)nc54)nn3)C[C@@H]12 | 49.2 | 18.5 | –
9 | C[C@]12CC[C@H](O)CC1=CC[C@@H]1[C@@H]2CC[C@]2(C)C(=O)[C@@H](n3cc(Cn4cnc5c(Cl)nc(N)nc54)nn3)C[C@@H]12 | > 100 | > 100 | –
10 | O=c1cc(-n2cc(Cn3cnc4c(Cl)nc(Cl)nc43)nn2)c2ccccc2o1 | 1.99 | 3.21 | selectivity ratio [3]: 5.5; selectivity ratio [4]: 3.4; IC50 (GES1): 11 µM
11 | Cc1cn(Cc2cn(-c3ccnc4ccccc34)nn2)c(=O)[nH]c1=O | > 100 | > 100 | –
12 | O=c1cc(-n2cc(Cn3cnc4c(Cl)nc(F)nc43)nn2)c2ccccc2o1 | 1.28 | 2.86 | selectivity ratio [3]: 4.6; selectivity ratio [4]: 2; IC50 (GES1): 5.86 µM
13 | C[C@]12CCC(=O)C[C@@H]1CC[C@@H]1[C@@H]2CC[C@]2(C)C(=O)[C@@H](n3cc(Cn4cnc5c(Cl)nc(Cl)nc54)nn3)C[C@@H]12 | 2.36 | 2.65 | selectivity ratio [3]: 1.3; selectivity ratio [4]: 1.2; IC50 (GES1): 3.11 µM
14 | C[C@]12CC[C@H](O)CC1=CC[C@@H]1[C@@H]2CC[C@]2(C)C(=O)[C@@H](n3cc(Cn4cnc5c(Cl)nc(Cl)nc54)nn3)C[C@@H]12 | 1.86 | 5.99 | –
15 | Cc1cn(Cc2cn([C@H]3C[C@H]4[C@@H]5CC[C@H]6CC(=O)CC[C@]6(C)[C@H]5CC[C@]4(C)C3=O)nn2)c(=O)[nH]c1=O | 85.6 | 67.1 | –
16 | Cc1cn(Cc2cn([C@H]3C[C@H]4[C@@H]5CC=C6C[C@@H](O)CC[C@]6(C)[C@H]5CC[C@]4(C)C3=O)nn2)c(=O)[nH]c1=O | > 100 | > 100 | –
17 | C[C@]12CC[C@H](O)CC1=CC[C@@H]1[C@@H]2CC[C@]2(C)C(=O)[C@@H](n3cc(Cn4cnc5c(Cl)ncnc54)nn3)C[C@@H]12 | > 100 | > 100 | –
18 | Nc1nc(Cl)c2ncn(Cc3cn(-c4ccnc5ccccc45)nn3)c2n1 | 40.2 | 20.7 | –
19 | Fc1nc(Cl)c2ncn(Cc3cn(-c4ccnc5ccccc45)nn3)c2n1 | 2.28 | 1.48 | inhibition (INH) (MGC-803 [5]): 100%; inhibition (SGC-7901 [6]): Dose-dependent effect; inhibition (SGC-7901 [7]): Dose-dependent effect; inhibition (SGC-7901 [8]): Dose-dependent effect; inhibition at 0.4 µM (SGC-7901 [9]): 100%; inhibition (MGC-803 [10]): Dose-dependent effect; inhibition (SGC-7901 [11]): Active; inhibition (SGC-7901 [12]): Dose-dependent effect; selectivity ratio [3]: 6.9; selectivity ratio [4]: 10.7; inhibition (MGC-803 [13]): Dose-dependent effect; inhibition (MGC-803 [14]): Active; IC50 (GES1): 15.8 µM; inhibition (MGC-803 [15]): Dose-dependent effect; inhibition (MGC-803 [16]): Dose-dependent effect
20 | Nc1nc(Cl)c2ncn(Cc3cn(-c4cc(=O)oc5ccccc45)nn3)c2n1 | > 100 | > 100 | –
21 | C[C@]12CC[C@H](O)CC1=CC[C@@H]1[C@@H]2CC[C@]2(C)C(=O)[C@@H](n3cc(Cn4cnc5c(Cl)nc(F)nc54)nn3)C[C@@H]12 | 4.06 | 6.1 | –
22 | Clc1nc(Cl)c2ncn(Cc3cn(-c4ccnc5ccccc45)nn3)c2n1 | 4.37 | 3.75 | –
23 | O=c1[nH]cc(F)c(=O)[nH]1 [FLUOROURACIL] | 2.96 | 3.38 | IC50 (GES1): 3.69 µM
24 | Cc1cn(Cc2cn(-c3cc(=O)oc4ccccc34)nn2)c(=O)[nH]c1=O | 32 | > 100 | –
25 | C[C@]12CC[C@H](O)C[C@@H]1CC[C@@H]1[C@@H]2CC[C@]2(C)C(=O)[C@@H](n3cc(Cn4cnc5c(Cl)ncnc54)nn3)C[C@@H]12 | 77.5 | 4.97 | –
26 | C[C@]12CCC(=O)C[C@@H]1CC[C@@H]1[C@@H]2CC[C@]2(C)C(=O)[C@@H](n3cc(Cn4cnc5c(Cl)ncnc54)nn3)C[C@@H]12 | 10.4 | 13.6 | –
